Measured values as given in patent publication US20230087118A1, “IMIDAZO[1,2-a][sequence] DERIVATIVES AND THEIR USE IN THE TREATMENT OF DISEASE” (priority 2019, published 2023).
Where two headings read alike, the source gives them in different places.

Target: T1, IRAK4 (Homo sapiens, UniProt Q9NWZ3)
T1 sequence (Q9NWZ3 1-460): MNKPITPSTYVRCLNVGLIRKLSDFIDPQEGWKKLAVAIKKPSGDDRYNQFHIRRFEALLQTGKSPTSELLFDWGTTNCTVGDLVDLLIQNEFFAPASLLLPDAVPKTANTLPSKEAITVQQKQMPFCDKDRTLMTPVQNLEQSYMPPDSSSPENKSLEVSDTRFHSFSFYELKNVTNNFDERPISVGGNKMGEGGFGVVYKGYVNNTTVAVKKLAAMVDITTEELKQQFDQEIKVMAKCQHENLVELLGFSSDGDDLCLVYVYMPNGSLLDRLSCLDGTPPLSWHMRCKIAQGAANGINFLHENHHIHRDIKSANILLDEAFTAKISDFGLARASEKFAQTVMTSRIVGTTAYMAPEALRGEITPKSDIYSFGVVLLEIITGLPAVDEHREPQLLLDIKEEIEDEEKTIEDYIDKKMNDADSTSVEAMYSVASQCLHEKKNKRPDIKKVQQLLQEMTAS
Assay: biochemical

[1] = IRAK4 Biochemical Assay (1 mM ATP, 2 h) IC50 (μM), 1 mM ATP, 2 h, 100 pM IRAK4

Structure (SMILES) | IC50 [µM] | IC50 [1] [µM]
Cn1ccc(NC(=O)c2cn3cc(C45CCC(C)(C4)OC5)nc3cc2OC2CCC2)n1 (stereo not drawn) [Example 561, 7-Cyclobutoxy-N-(1-methyl-1H-pyrazol-3-yl)-2-(1-methyl-2-oxabicyclo[2.2.1]heptan-4-yl)imidazo[1,2-a]pyridine-6-carboxamide] | 0.0014 | 
CC(C)Oc1nc2nc(C34COC(CF)(C3)C4)cn2cc1C(=O)Nc1cccc(C(F)F)n1 [Example 564, N-(6-(difluoromethyl)pyridin-2-yl)-2-(1-(fluoromethyl)-2-oxabicyclo[2.1.1]hexan-4-yl)-7-isopropoxyimidazo[1,2-a]pyrimidine-6-carboxamide] | 0.0003 | 
Cc1cnc2c(NC(=O)c3cn4cc(C56CCC(C)(CC5)CO6)nc4nc3OC(C)C)cnn2c1 [Example 567, 7-Isopropoxy-2-(4-methyl-2-oxabicyclo[2.2.2]octan-1-yl)-N-(6-methylpyrazolo[1,5-a]pyrimidin-3-yl)imidazo[1,2-a]pyrimidine-6-carboxamide] | 0.0002 | 
Cn1ccc(NC(=O)c2cn3cc(C45CCC(C)(CC4)OC5)nc3cc2OC2CCC2)n1 [Example 570, 7-Cyclobutoxy-N-(1-methyl-1H-pyrazol-3-yl)-2-(1-methyl-2-oxabicyclo[2.2.2]octan-4-yl)imidazo[1,2-a]pyridine-6-carboxamide] | 0.0004 | 
CC(C)Oc1cc2nc(C34CCC(C)(CC3)OC4)cn2cc1C(=O)Nc1ccn(C)n1 [Example 571, 7-Isopropoxy-N-(1-methyl-1H-pyrazol-3-yl)-2-(1-methyl-2-oxabicyclo[2.2.2]octan-4-yl)imidazo[1,2-a]pyridine-6-carboxamide] |  | 0.0017
Cc1cnc2c(NC(=O)c3cn4cc(C56CCC(C)(CC5)OC6)nc4cc3OC(C)C)cnn2c1 [Example 573, 7-Isopropoxy-2-(1-methyl-2-oxabicyclo[2.2.2]octan-4-yl)-N-(6-methylpyrazolo[1,5-a]pyrimidin-3-yl)imidazo[1,2-a]pyridine-6-carboxamide] |  | 0.0018

More lines, main results first:

IC50 [µM] | Structure (SMILES) | IC50 [1] [µM]
0.0005 | CC(C)Oc1nc2nc(C34COC(CF)(C3)C4)cn2cc1C(=O)Nc1cnn2cccnc12 [Example 563, 2-(1-(Fluoromethyl)-2-oxabicyclo[2.1.1]hexan-4-yl)-7-isopropoxy-N-(pyrazolo[1,5-a]pyrimidin-3-yl)imidazo[1,2-a]pyrimidine-6-carboxamide] | 
0.0005 | CC(C)Oc1nc2nc(C34CCC(C3)OC4)cn2cc1C(=O)Nc1cnn2cccnc12 (stereo not drawn) [Example 565, 2-(2-Oxabicyclo[2.2.1]heptan-4-yl)-7-isopropoxy-N-(pyrazolo[1,5-a]pyrimidin-3-yl)imidazo[1,2-a]pyrimidine-6-carboxamide] | 
0.0009 | CC(C)Oc1nc2nc(C34CCC(C)(CC3)CO4)cn2cc1C(=O)Nc1ccn(C)n1 [Example 566, 7-Isopropoxy-N-(1-methyl-1H-pyrazol-3-yl)-2-(4-methyl-2-oxabicyclo[2.2.2]octan-1-yl)imidazo[1,2-a]pyrimidine-6-carboxamide] | 
0.0002 | Cc1cnc2c(NC(=O)c3cn4cc(C56COC(C)(C5)C6)nc4cc3OC3CCCC3)cnn2c1 [Example 568, 7-(Cyclopentyloxy)-2-(1-methyl-2-oxabicyclo[2.1.1]hexan-4-yl)-N-(6-methylpyrazolo[1,5-a]pyrimidin-3-yl)imidazo[1,2-a]pyridine-6-carboxamide] | 
0.0024 | Cc1cnc2c(NC(=O)c3cn4cc(C56CCC(C)(C5)OC6)nc4nc3OC(C)C)cnn2c1 (stereo not drawn) [Example 569, 7-Isopropoxy-2-(1-methyl-2-oxabicyclo[2.2.1]heptan-4-yl)-N-(6-methylpyrazolo[1,5-a]pyrimidin-3-yl)imidazo[1,2-a]pyrimidine-6-carboxamide] | 
0.0004 | CC(C)Oc1cc2nc(C34CCC(C)(CC3)OC4)cn2cc1C(=O)Nc1cnn2cccnc12 [Example 572, 7-Isopropoxy-2-(1-methyl-2-oxabicyclo[2.2.2]octan-4-yl)-N-(pyrazolo[1,5-a]pyrimidin-3-yl)imidazo[1,2-a]pyridine-6-carboxamide] | 
